Tests used:
Type in all cases: cell-based
CANDIDA ALBICANS CCH 442 = test: In vitro antibacterial activity, MIC, BHI agar dilution; conditions: C. albicans CCH 442, unit assumed
[1] = test system: KLEBSIELLA PNEUMONIAE ATCC 8045; test: as above; conditions: K. pneumoniae ATCC 8045, unit assumed
[2] = test system: STAPHYLOCOCCUS EPIDERMIDIS 3519; conditions: S. epidermidis 3519; BHI agar; unit assumed
[3] = test system: STAPHYLOCOCCUS AUREUS 1775; test: In vitro antibacterial activity, MIC, BHI agar dilution; conditions: S. aureus 1775, unit assumed
ESCHERICHIA COLI H560 = test: as above; conditions: E. coli H560, unit assumed
M[…] ATCC 4698 = test: as above; conditions: M. luteus ATCC 4698, unit assumed
Outline: (§1)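 BHI agar dilution, 12 plates; inoculum 1:100 (1:10 slow-growing strains), Steers replicator; 35-37° C, 20-24 h. MIC = lowest conc. with no growth/slight haze/sparse colonies vs growth control, visual read. Erythromycin A reference plate.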

STR[…] 508 = test: as above; conditions: S. agalactiae CMX 508, unit assumed
Outline: as §1

EN[…] ATCC 8043 = test: as above; conditions: E. faecium ATCC 8043, unit assumed
Outline: as §1

M[…] ATCC 9341 = test: as above; conditions: M. luteus ATCC 9341, unit assumed
Outline: as §1

PSEUDOMONAS CEPACIA 296I = test: as above; conditions: P. cepacia 296I, unit assumed
[4] = test system: STREPTOCOCCUS PYOGENES 930; test: as above; conditions: S. pyogenes 930, unit assumed
[5] = test system: MYCOBACTERIUM SMEGMATIS ATCC 114; test: as above; conditions: M. smegmatis ATCC 114, unit assumed
[6] = test system: STAPHYLOCOCCUS AUREUS NCTC10649M; test: as above; conditions: S. aureus NCTC10649M, unit assumed
ESCHERICHIA COLI DC-2 = test: as above; conditions: E. coli DC-2, unit assumed
[7] = test system: STAPHYLOCOCCUS AUREUS A-5278; test: as above; conditions: S. aureus A-5278, unit assumed
[8] = test system: PROVIDENCIA STUARTII CMX 640; conditions: P. stuartii CMX 640; BHI agar; unit assumed
[9] = test system: STREPTOCOCCUS BOVIS A-5169; test: In vitro antibacterial activity, MIC, BHI agar dilution; conditions: S. bovis A-5169, unit assumed
[10] = test system: PSEUDOMONAS AERUGINOSA K799/61; test: as above; conditions: P. aeruginosa K799/61, unit assumed
[11] = test system: STAPHYLOCOCCUS AUREUS CMX 553; test: as above; conditions: S. aureus CMX 553, unit assumed
[12] = test system: STAPHYLOCOCCUS AUREUS CMX 642A; test: as above; conditions: S. aureus CMX 642A, unit assumed
[13] = test system: PSEUDOMONAS AERUGINOSA DPHD-2862; test: as above; conditions: P. aeruginosa DPHD-2862, unit assumed
[14] = test system: PSEUDOMONAS AERUGINOSA BMH10; test: as above; conditions: P. aeruginosa BMH10, unit assumed
[15] = test system: STREPTOCOCCUS PYOGENES EES61; test: as above; conditions: S. pyogenes EES61, unit assumed
[16] = test system: PSEUDOMONAS AERUGINOSA 5007; test: as above; conditions: P. aeruginosa 5007, unit assumed
[17] = test system: PSEUDOMONAS AERUGINOSA K799/WT; test: as above; conditions: P. aeruginosa K799/WT, unit assumed
[18] = test system: ACINETOBACTER CALCOACETICUS CMX 669; test: as above; conditions: A. calcoaceticus CMX 669, unit assumed
[19] = test system: STREPTOCOCCUS PYOGENES PIU 2548; test: as above; conditions: S. pyogenes PIU 2548, unit assumed
[20] = test system: STAPHYLOCOCCUS AUREUS ATCC 6538P; test: as above; conditions: S. aureus ATCC 6538P, 35-37° C., 20 to 24 hours, unit assumed
ESCHERICHIA COLI SS = test: as above; conditions: E. coli SS, unit assumed
[21] = test system: ENTEROBACTER AEROGENES ATCC 13048; test: as above; conditions: E. aerogenes ATCC 13048, unit assumed
ESCHERICHIA COLI KNK 437 = conditions: E. coli KNK 437; BHI agar; unit assumed
[22] = test system: PSEUDOMONAS AERUGINOSA DPHD-5263; test: In vitro antibacterial activity, MIC, BHI agar dilution; conditions: P. aeruginosa DPHD-5263, unit assumed
[23] = test system: STAPHYLOCOCCUS AUREUS A5177; test: as above; conditions: S. aureus A5177, unit assumed
ESCHERICHIA COLI JUHL = conditions: E. coli JUHL; BHI agar; unit assumed

Measured: MIC

CC[C@H]1OC(=O)[C@H](C)C(=O)[C@H](C)[C@@H](O[C@@H]2O[C@H](C)C[C@H](N(C)C)[C@H]2O)[C@](C)(OC)C[C@@H](C)C2=NC[C@H](Cc3ccc(NC(=O)OCc4ccccc4)cc3)N3C(=O)O[C@@]1(C)[C@H]3[C@H]2C [Example 68]
0.78 µg/mL: [19]
0.1 µg/mL: M[…] ATCC 9341 | [15]
1.56 µg/mL: ESCHERICHIA COLI SS
0.2 µg/mL: EN[…] ATCC 8043 | [6] | [11] | [12] | [20] | [23]
0.05 µg/mL: STR[…] 508 | [9]
0.39 µg/mL: [2] | M[…] ATCC 4698
3.1 µg/mL: [5] | [10]
100 µg/mL: ESCHERICHIA COLI DC-2 | [18]
50 µg/mL: ESCHERICHIA COLI H560 | [4]
not listed: ESCHERICHIA COLI JUHL
> 100 µg/mL: all other assays above

CC[C@H]1OC(=O)[C@H](C)C(=O)[C@H](C)[C@@H](O[C@@H]2O[C@H](C)C[C@H](N(C)C)[C@H]2O)[C@](C)(OC)C[C@@H](C)C2=NC[C@H](COCc3ccc(F)cc3)N3C(=O)O[C@@]1(C)[C@H]3[C@H]2C [Example 71]
100 µg/mL: [8] | [13] | [16] | [17]
0.78 µg/mL: [10]
0.05 µg/mL: EN[…] ATCC 8043
> 100 µg/mL: CANDIDA ALBICANS CCH 442 | [3] | [7] | [22]
0.01 µg/mL: STR[…] 508 | M[…] ATCC 9341 | [15]
0.2 µg/mL: [5]
12.5 µg/mL: ESCHERICHIA COLI H560 | ESCHERICHIA COLI DC-2 | [18]
25 µg/mL: ESCHERICHIA COLI JUHL | PSEUDOMONAS CEPACIA 296I | [4] | ESCHERICHIA COLI KNK 437
50 µg/mL: [14] | [21]
0.39 µg/mL: [19] | ESCHERICHIA COLI SS
0.02 µg/mL: [9]
not listed: [1]
0.1 µg/mL: all other assays above

CC[C@H]1OC(=O)[C@H](C)C(=O)[C@H](C)[C@@H](O[C@@H]2O[C@H](C)C[C@H](N(C)C)[C@H]2O)[C@](C)(OC)C[C@@H](C)C2=N[C@H](COCc3ccccn3)CN3C(=O)O[C@@]1(C)[C@H]3[C@H]2C [Example 81]
0.05 µg/mL: STR[…] 508 | EN[…] ATCC 8043 | M[…] ATCC 9341 | [9] | [15]
0.39 µg/mL: [2] | M[…] ATCC 4698 | [6] | [11] | [12] | [19] | [20] | [23]
1.56 µg/mL: ESCHERICHIA COLI SS
50 µg/mL: ESCHERICHIA COLI H560
3.1 µg/mL: [5] | [10]
100 µg/mL: [18]
not listed: [1]
> 100 µg/mL: all other assays above

CC[C@H]1OC(=O)[C@H](C)C(=O)[C@H](C)[C@@H](O[C@@H]2O[C@H](C)C[C@H](N(C)C)[C@H]2O)[C@](C)(OC)C[C@@H](C)C2=N[C@H](COCc3cccnc3)CN3C(=O)O[C@@]1(C)[C@H]3[C@H]2C [Example 82]
0.05 µg/mL: STR[…] 508 | EN[…] ATCC 8043 | M[…] ATCC 9341 | [9] | [15]
3.1 µg/mL: [5] | [10]
0.39 µg/mL: [2] | M[…] ATCC 4698 | [6] | [11] | [12] | [19] | [20] | [23]
0.78 µg/mL: ESCHERICHIA COLI SS
not listed: [1]
> 100 µg/mL: all other assays above

CC[C@H]1OC(=O)[C@H](C)C(=O)[C@H](C)[C@@H](O[C@@H]2O[C@H](C)C[C@H](N(C)C)[C@H]2O)[C@](C)(OC)C[C@@H](C)C2=NC3COCC3N3C(=O)O[C@@]1(C)[C@H]3[C@H]2C (stereo partly drawn) [Example 108]
100 µg/mL: [18]
0.78 µg/mL: M[…] ATCC 4698 | [6] | [11] | [12] | ESCHERICHIA COLI SS
0.2 µg/mL: EN[…] ATCC 8043
0.39 µg/mL: [19] | [20] | [23]
0.1 µg/mL: STR[…] 508 | M[…] ATCC 9341 | [15]
12.5 µg/mL: [5]
0.02 µg/mL: [9]
1.56 µg/mL: [2]
6.2 µg/mL: [10]
not listed: ESCHERICHIA COLI JUHL
> 100 µg/mL: all other assays above

From US6274715A, “Tricyclic erythromycin derivatives” (priority 1997, dated 2001)
